Source: ChEMBL document CHEMBL3507680, “University of Dundee, Gates Library screen for HepG2 cell viability”

Experiment: Human HepG2 cell viability assay in 384 well format
Format: toxicity, cell-based
Set-up: dose 125 nL, time 70.5 hour; cytotoxicity at 70.5 h: concentration not given beside the values
Settings: HepG2 cells, read-out: Inhibition

| Structure (SMILES) | cytotoxicity at 70.5 h [%] |
| --- | --- |
| COc1ccc2c(c1)CCCN2C(=O)CNCC1CN(C)CCO1 (configuration not stated) | 12.1 |
| CNC(=O)[C@H]1C[C@H]2OCC[C@H]2N(Cc2ccc(C)o2)C1 | 3.85 |
| O=C1NC[C@@]2(C(=O)O)CN(Cc3ccc(Oc4ccccc4)cc3)C[C@@H]12 | -1.43 |
| CNc1cccc(C2CCCN(C(=O)c3cscn3)C2)n1 (configuration not stated) | -8.52 |
| Cc1cccnc1CNc1ccc(C(=O)N2CCc3ccccc32)cn1 | 0.0725 |
| CC(C)n1nc(Cn2cccn2)c2c1CN(C1CCOC1)C2 (configuration not stated) | -4.66 |
| Cc1ccc(C(=O)N2CCCc3c(c(=O)n(C)n3C)C2)o1 | 11.7 |
| Cc1cc(-c2cnn(CCNC(=O)c3snnc3C)c2C2CC2)on1 | -2.4 |
| Cc1noc(C)c1C(=O)N1CCCCC1c1cc(C)n2ccnc2n1 (configuration not stated) | -10.1 |
| Cc1cc(NC(=O)N2CCN(c3cccs3)CC2)ccc1C(N)=O | 8.16 |
| COc1cc(-c2n[nH]c(CN)n2)cc(OC)c1OC | 23.8 |
| COc1cccc(Cn2[nH]c(C)c3c(NC(=O)C(C)OC)nnc2-3)c1 (configuration not stated) | -6.21 |
| CC(c1cccc(-c2nccn2CCc2ccccn2)c1)N(C)C (configuration not stated) | -7.37 |
| CCOCCC(=O)N1CCN(CC(C)O)CC1 (configuration not stated) | 16 |
| CCOC(=O)CC(c1ccc(OC)cc1)c1c(O)n[nH]c1C (configuration not stated) | -13.7 |
| Cc1noc(C)c1CCC(=O)N[C@@H]1CCC[C@@H](Oc2cccnc2)[C@@H]1O | -3.39 |
| CS(=O)(=O)NC1CCN(C(=O)COCc2ccccc2)CC1 | 18.3 |
| Nc1nc(CNc2ncnc3c2CCN(Cc2ccoc2)CC3)cs1 | 29 |
| Cn1ncc(CN2CCc3onc(-c4cccc(F)c4)c3C2)c1C1CC1 | -11.6 |
| CCCc1nc(CNCC2CCCN2c2cccnn2)cs1 (configuration not stated) | 11.9 |
| Cc1ccc(CNc2ccn(CCC(N)=O)n2)c(Br)c1 | 8.15 |
| COCc1cccc(C(=O)N2CCCN(C(=O)OCC(C)C)CC2)c1 | -5.18 |
| O=C(O)C1(n2ccc(-c3ccco3)n2)CCN(Cc2ccccn2)CC1 | -4.75 |

| Structure (SMILES) | cytotoxicity at 70.5 h [%] |
| --- | --- |
| CCCN1CCc2[nH]nc(C(=O)N3CCNC(=O)C3)c2C1 | -2.77 |
| CC(C)CCn1c(=O)nc2n1C(=O)N(c1ccc(F)cc1)C2 | 22.3 |
| COc1ccc(C(C)NCc2cccs2)cc1Cn1cccn1 (configuration not stated) | 15.6 |
| O=C1CC(N(C(=O)c2ccc(F)c(C(F)(F)F)c2)C2CC2)C(=O)N1 (configuration not stated) | 0.0677 |
| CC(C)(NC(=O)C1CCCN(C2CCCC2)C1)c1nnc(N)s1 (configuration not stated) | -3.27 |
| CCN1CCN(C(=O)NCc2ccccc2Cn2cncn2)CC1 | 19.4 |
| CN1CCC(CNC(=O)c2ccc(O)nc2)c2ccccc21 (configuration not stated) | 1.07 |
| CC(NC(=O)N1CCCN(C)CC1)c1ccc2c(c1)OCCO2 (configuration not stated) | -6.8 |
| CNc1cncc(C2CCCN2C(=O)c2ccc3oc(=O)n(C)c3c2)n1 (configuration not stated) | 17.9 |
| COc1ncccc1CNC(=O)NCCNS(C)(=O)=O | -2.56 |
| Cc1cnn(C2CCCN(C(=O)c3ccc(-n4ccnc4)cc3)C2)c1 (configuration not stated) | -17.4 |
| CCN(Cc1cnn(CC)c1)C(=O)CN1C(=O)CCc2ccccc21 | -4.74 |
| Cc1cnn(CC2CCCN2Cc2nnc(C)o2)c1 (configuration not stated) | -2.26 |
| CCN1C(=O)C2(CCCCC2)NC1c1cc(C#N)n(C)c1C (configuration not stated) | -8.35 |
| CN(CC(=O)N1CCC(OCc2cccnc2)CC1)c1ccccc1 | -17.1 |
| Cc1nc(CN2CCCC(N(C)c3cnc4ccccc4n3)C2)no1 (configuration not stated) | 20.5 |
| Cc1nnc(CN(C)Cc2nc3c(s2)CCCC3)o1 | -5.09 |
| Cc1cc(CCC(=O)NCc2nccn2C)ccc1Br | 1.59 |
| CCN(CC)S(=O)(=O)N1CCCN(CC2CCCO2)CC1 (configuration not stated) | 23.8 |
| CCCn1[nH]cc/c1=N\C(=O)CN1CCc2c(nc(C(C)C)n2C)C1 | 18 |
| N#Cc1ccc(CN(CC(N)=O)C2CCCC2)c(Br)c1 | -6.26 |
| O=C1[C@H]2CN(Cc3ccc(F)cc3)C[C@H]2CN1c1ccsc1 | -13.2 |
| c1coc(COCc2ncn3c2CN(Cc2cccs2)CCC3)c1 | -2.67 |

| Structure (SMILES) | cytotoxicity at 70.5 h [%] |
| --- | --- |
| CS(=O)(=O)c1ccc(C(=O)N2CCCC(n3ccnc3)C2)cc1 (configuration not stated) | -10.2 |
| Cc1cc(CN2CCC3(CC2)C(=O)NCCN3CC2CC2)oc1C | 9.39 |
| O=C(NC[C@H]1OC[C@@H](NCc2ccccn2)[C@@H]1O)N1CCOCC1 | -10.1 |
| CNS(=O)(=O)c1cccc(C(=O)N(C)Cc2ccsc2)c1 | -7.55 |
| CC(=O)N1CCN(C(=O)NCc2csc(Br)c2)CC1 | -9.87 |
| Cc1ccccc1C(CNc1ncnc2c1CCNCC2)N(C)C (configuration not stated) | 5.24 |
| O=C(CN1CCCC1=O)NCc1cccnc1Oc1ccc(F)c(F)c1 | 1.24 |
| CC(=O)N1CCCC1c1nc(C)cc(-c2ccc(F)cc2)n1 (configuration not stated) | -1.51 |
| O=C(c1ccco1)N1CCC2(CC1)C(=O)Nc1ccccc12 | -9.22 |
| C[C@@H]1C[C@H](C(F)(F)F)n2nc(C3CCN(S(C)(=O)=O)CC3)cc2N1 | -2.94 |
| CN1CCOC(CN(C(=O)CCc2ccco2)c2nccs2)C1 (configuration not stated) | 10.3 |
| Cc1ncsc1C(=O)NC1CCN(CCC(N)=O)CC1 | -21.4 |
| CNS(=O)(=O)Cc1ccc(CNC(=O)c2ccc(C)[nH]c2=O)cc1 | -9.88 |
| Cc1nc(C)n(CC(=O)N2CCCC(c3cc4ccccc4cn3)C2)n1 (configuration not stated) | -5.39 |
| CNC(=O)CN1CCO[C@H]2CN(CC3CCOC3)C[C@H]21 (some centres not stated) | -1.2 |
| CCC1COC2(CCN(C(=O)c3ccco3)CC2)C1 (configuration not stated) | -9.86 |
| O=C(O)CN1CCCC2(CCN2Cc2cccc(F)c2)C1 (configuration not stated) | -1.42 |
| NCCC(=O)N1CCC2(CC1)CN(C(=O)Cc1cccc(Cl)c1)CCO2 | -15.5 |
| CCOc1ccc(CN2CCC3(CC2)CNC(=O)C3)cn1 | -1.37 |
| O=C(NCc1ccon1)Nc1cc(F)ccc1N1CCCCC1 | 0.987 |
| CCOCC1CN(Cc2cnn(C)c2)Cc2ncn(C)c21 (configuration not stated) | -9.79 |
| O=C(CC1CC1)N[C@@H]1CN(C(=O)c2ccsc2)C[C@@H]2CCCO[C@@H]21 | -1.55 |
| CNC(=O)[C@@H]1CC[C@@H]2[C@@H](CCN2C(=O)N(C)C)O1 | -0.00257 |

| Structure (SMILES) | cytotoxicity at 70.5 h [%] |
| --- | --- |
| COc1c(C)cnc(CN2CCCC2c2noc(C3CC3)n2)c1C (configuration not stated) | 1.14 |
| CC(=O)N1CCN(c2ccccc2CNc2ccc(C)cn2)CC1 | -3.33 |
| CCOC(=O)C1CN(CC2CC2)Cc2ncn(CC)c21 (configuration not stated) | -2.34 |
| CCC1=N[C@@]2(CC[C@@H]3CN(S(=O)(=O)CC)C[C@@H]32)C(=O)N1CC | -2.37 |
| Cc1cnc(C)c(-c2cc(O)c3c(c2)CN(c2ncccn2)CCO3)n1 | 48.2 |
| OC1(CN2CCC(Cc3ncccn3)CC2)CCOCC1 | 13.1 |
| Cc1ncsc1C(=O)NCCNc1cnccn1 | -3.47 |
| Cc1cn2cc(C(=O)NC3CCCN(c4ncccn4)C3)ccc2n1 (configuration not stated) | 1.08 |
| COCCN1CCN(Cc2ccc3nsnc3c2)[C@H]2CS(=O)(=O)C[C@H]21 | -5.97 |
| CCn1cc(C(=O)N2C[C@H]3C[C@H](Oc4ccccc4)C[C@H]3C2)cn1 | -0.374 |
| Cc1ccnn1CCC(=O)N1CCCC[C@@]2(C)[C@@H]1CCC(=O)N2C | -4.62 |
| CC(C)Oc1cccc(C(=O)C2CCCN(C(=O)c3cncs3)C2)c1 (configuration not stated) | -10.7 |
| C[C@@H]1CN(Cc2cc(C3CCCCC3)no2)CC[C@@]1(O)C1CC1 | 6.92 |
| O=C(c1cccnc1)N1C[C@@H]2CC[C@H](C1)N(Cc1ncc[nH]1)C2 | -7.7 |
| O=C1NCC2(CCCN(C(=O)Nc3cccc(-c4cscn4)c3)CC2)O1 (configuration not stated) | 36 |
| Cc1ccc(-c2cc(C(=O)N3CCCC3c3cccnc3)[nH]n2)o1 (configuration not stated) | -4.23 |
| CNC(=O)C1CCCCN1C(=O)CCn1cnc2sccc2c1=O (configuration not stated) | -1.4 |
| CCS(=O)(=O)N1CCCCC1c1nc(C(C)C)no1 (configuration not stated) | 7.03 |
| Cc1cc2n(n1)CC(CNCc1ccccc1Cn1cccn1)CN2 (configuration not stated) | 4.35 |
| CC(=O)NCC1CCN(c2cc(C)nc(-c3ccncc3)n2)CC1 | -10.9 |
| CC(C)Cn1ccc2c(NC(=O)c3n[nH]c4c3CCC4)cccc21 | 5.24 |
| COCCO[C@H]1CCN(c2cc(OC)ncn2)[C@H]1Cc1cnn(C)c1 | -4.71 |
| CC(C)c1nc2c(n1C)CCN(Cc1cccc(OCC(N)=O)c1)C2 | 0.112 |

| Structure (SMILES) | cytotoxicity at 70.5 h [%] |
| --- | --- |
| Cc1ccc(CN(C)C(=O)CN2CCOC(Cn3cccn3)C2)o1 (configuration not stated) | -3.39 |
| CCOCCc1nc(CCc2ccccc2)n[nH]1 | -6.03 |
| CCOc1ccc(Cl)c(C(=O)NCc2ccc(C(=O)NC)cc2)n1 | 4.62 |
| Cc1cc(C)cc(CNc2ccc(C(=O)NC(C)CO)cc2)c1 (configuration not stated) | -1.12 |
| CC(C)c1ccccc1NC(=O)N1C[C@@H]2CC[C@H](C1)N(C)C2=O | 27.2 |
| Cc1csc2ncc(-c3ccnc(NC4CCOCC4)n3)c(=O)n12 | 0.723 |
| CC(C)CC(=O)N1CCc2nc(N3CCOCC3)nc(NC(C)C)c2C1 | -15.8 |
| Cc1cnn(CC2CCCN2C(=O)c2c(F)cccc2Cl)c1 (configuration not stated) | 0.266 |
| COCCCN(CCOC)C(=O)Nc1ccc(C)cc1C | 0.857 |
| CCn1nc(C)c2nc(C(C)C)nc(NCC(C)O)c21 (configuration not stated) | -6.78 |
| Cc1csc(C2(NCc3csc(C4CC4)n3)CCCC2)n1 | -9.17 |
| CCN(CC)C(=O)c1ccn(COc2c(Cl)cccc2Cl)n1 | -10.4 |
| CCN1CC(C(=O)NCCCc2nc(C)c(C)s2)CC1=O (configuration not stated) | -9.75 |
| CC(C)[C@@H]1CN(C(=O)NCCc2ccccc2)C[C@H]1NS(=O)(=O)N(C)C | 2.29 |
| O=C(CCSc1ccccc1F)NCc1cccnc1 | -8.87 |
| COCc1cc(CNc2cnn(CC(F)F)c2)ccc1OC | 1.97 |
| Cc1oncc1C(=O)N1CCC2(CCN(Cc3cccnc3)C2=O)C1 (configuration not stated) | -3.48 |
| CC(C)COCCC(=O)NCCC(=O)N1CCN(c2ccccn2)CC1 | -2.77 |
| COc1ccc(NC(=O)N(CC2CCOC2)C2CC2)cn1 (configuration not stated) | -6.27 |
| COCCc1noc(CN2CCN(c3ccc(OC)cc3)C(=O)C2C)n1 (configuration not stated) | -15.8 |
